Laboratory results from patent US20240173432A1, “Compositions and Methods for Treatment of Myotonic Dystrophy Type 1 with CRISPR/SluCas9” (Vertex Pharmaceuticals Incorporated, priority 2021, published 2024).

Key:
[1] = system: CTG repeat in the 3′ UTR of human DMPK gene; assay: Dual-cut screening: CTG repeat excision efficiency by loss-of-signal ddPCR; assay type: cell-based; conditions: sgRNA pair, primary DM1 patient myoblasts; for Excision efficiency (by ddPCR): 3 μM DNA-PKi Compound 6 for 48 hours; for Excision efficiency by ddPCR (Vehicle): vehicle (DMSO)
How it was run: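 Upstream and downstream SluCas9 RNPs (20 pmol protein, 60 pmol sgRNA each) mixed 1:1 and nucleofected into primary DM1 patient myoblasts, then treated 48 h with DMSO or 3 μM DNA-PKi Compound 6. Genomic DNA taken 72 h post-nucleofection; excision read as loss of target signal by ddPCR versus a DMPK exon 1 reference.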

[2] = system: CUG foci in primary DM1 patient myoblasts; assay: Dual-cut screening: FISH staining of CUG RNA foci; assay type: cell-based, human; conditions: sgRNA pair, primary DM1 patient myoblasts; for % of CUG foci free nuclei (DNA-PKi): 3 μM DNA-PKi Compound 6 for 48 hours; for % of CUG foci free nuclei (Vehicle): vehicle (DMSO)
How it was run: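 SluCas9 RNPs (protein:sgRNA 1:3; 20 pmol SluCas9 + 60 pmol sgRNA per guide, paired 1:1) nucleofected into primary DM1 patient myoblasts, then DMSO or 3 μM DNA-PKi Compound 6 for 48 h. At 72 h post-nucleofection cells fixed, FISH-stained with Cy3-PNA(CAG)5 probe plus anti-MBNL1 and Hoechst; % CUG foci-free nuclei by high-content confocal imaging.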

Substance	Excision efficiency (by ddPCR) [1]	Excision efficiency by ddPCR (Vehicle) [1]	% of CUG foci free nuclei (DNA-PKi) [2]	% of CUG foci free nuclei (Vehicle) [2]
SluU59 + SluD68 (guide 1 CGCGGCCGGCGAACGGGGCTCG; guide 2 CCTGTAGCCTGTCAGCGAGTCG; guide RNA; listed as DNA, chemistry not fully specified)	65.42	58.24	89.37%	62.8125%
SluU59 + SluD73 (guide 1 CGCGGCCGGCGAACGGGGCTCG; guide 2 CCAAAACGTGGATTGGGGTTGT; guide RNA; listed as DNA, chemistry not fully specified)	64.95	42.14	87.85%	59.22%
SluU59 + SluD83 (guide 1 CGCGGCCGGCGAACGGGGCTCG; guide 2 GTGGGGACAGACAATAAATACC; guide RNA; listed as DNA, chemistry not fully specified)	64.95	49.18	90.49%	64.61%
SluU59 + SluD100 (guide 1 CGCGGCCGGCGAACGGGGCTCG; guide 2 GTCCAGAGCTTTGGGCAGATGG; guide RNA; listed as DNA, chemistry not fully specified)	68.69	37.61	90.09%	62.45%
SluU62 + SluD32 (guide 1 AGGACCCTTCGAGCCCCGTTCG; guide 2 CTTGTGCATGACGCCCTGCTCT; guide RNA; listed as DNA, chemistry not fully specified)	79.91	50.19	88.75%	55.63%
SluU62 + SluD34 (guide 1 AGGACCCTTCGAGCCCCGTTCG; guide 2 CGCGCCAGACGCTCCCCAGAGC; guide RNA; listed as DNA, chemistry not fully specified)	64.95	48.18	88.29%	64.71%
SluU62 + SluD48 (guide 1 AGGACCCTTCGAGCCCCGTTCG; guide 2 GAGAGCAGCGCAAGTGAGGAGG; guide RNA; listed as DNA, chemistry not fully specified)	66.36	35.6	88.08%	54.22%
SluU62 + SluD56 (guide 1 AGGACCCTTCGAGCCCCGTTCG; guide 2 CCAGCCGGCTCCGCCCGCTTCG; guide RNA; listed as DNA, chemistry not fully specified)	61.21	32.08	84.3%	36.42%
SluU62 + SluD68 (guide 1 AGGACCCTTCGAGCCCCGTTCG; guide 2 CCTGTAGCCTGTCAGCGAGTCG; guide RNA; listed as DNA, chemistry not fully specified)	63.55	33.08	87.71%	49.06%
SluU62 + SluD73 (guide 1 AGGACCCTTCGAGCCCCGTTCG; guide 2 CCAAAACGTGGATTGGGGTTGT; guide RNA; listed as DNA, chemistry not fully specified)	65.89	38.11	88.13%	52.87%
SluU62 + SluD83 (guide 1 AGGACCCTTCGAGCCCCGTTCG; guide 2 GTGGGGACAGACAATAAATACC; guide RNA; listed as DNA, chemistry not fully specified)	68.69	43.14	88.94%	56.65%
SluU62 + SluD100 (guide 1 AGGACCCTTCGAGCCCCGTTCG; guide 2 GTCCAGAGCTTTGGGCAGATGG; guide RNA; listed as DNA, chemistry not fully specified)	64.02	37.11	88.35%	53.45%
SluU63 + SluD32 (guide 1 GGGGCTCGAAGGGTCCTTGTAG; guide 2 CTTGTGCATGACGCCCTGCTCT; guide RNA; listed as DNA, chemistry not fully specified)	94.81	60.75	89.04%	75.26%
SluU63 + SluD34 (guide 1 GGGGCTCGAAGGGTCCTTGTAG; guide 2 CGCGCCAGACGCTCCCCAGAGC; guide RNA; listed as DNA, chemistry not fully specified)	93.5	63.27	87.25%	77.85%
SluU63 + SluD48 (guide 1 GGGGCTCGAAGGGTCCTTGTAG; guide 2 GAGAGCAGCGCAAGTGAGGAGG; guide RNA; listed as DNA, chemistry not fully specified)	94.25	63.77	90.03%	73.73%
SluU63 + SluD56 (guide 1 GGGGCTCGAAGGGTCCTTGTAG; guide 2 CCAGCCGGCTCCGCCCGCTTCG; guide RNA; listed as DNA, chemistry not fully specified)	90.05	50.69	88.12%	60.91%
SluU63 + SluD68 (guide 1 GGGGCTCGAAGGGTCCTTGTAG; guide 2 CCTGTAGCCTGTCAGCGAGTCG; guide RNA; listed as DNA, chemistry not fully specified)	93.64	57.23	90.625%	71.74%
SluU63 + SluD73 (guide 1 GGGGCTCGAAGGGTCCTTGTAG; guide 2 CCAAAACGTGGATTGGGGTTGT; guide RNA; listed as DNA, chemistry not fully specified)	95.51	63.27	90.58%	70.03%
SluU63 + SluD83 (guide 1 GGGGCTCGAAGGGTCCTTGTAG; guide 2 GTGGGGACAGACAATAAATACC; guide RNA; listed as DNA, chemistry not fully specified)	93.27	58.74	89.8%	74.11%
